In US11046670B2, “Piperazinyl norbenzomorphan compounds and methods for using the same” (priority 2015, dated 2021):
Where two headings read alike, the source gives them in different places.

Key:
[1] = target: T1, sigma 2 receptor (Rattus norvegicus (Rat), UniProt Q5U3Y7); settings: for Ki: read-out: σ2 Ki; for Ki(σ1)/Ki(σ2): selectivity σ2 over σ1
Procedure: (§1) Sigma-2 receptor ligands and their binding assays. […] The compounds were dissolved in 100% DMSO prior to the receptor binding assays, which were performed by the Psychoactive Drug Screening Program (PDSP) at Chapel Hill, N.C. […] Briefly, Sig2Rs were sourced from rat liver homogenates (PC12 cells). The Sig2R ligand binding affinity was determined through competition binding assays using the radioligand [^3H]-ditolylguanidine in the presence of (+)-pentazocine to block Sig1R binding sites. The radioactivity in the presence of the test compound is calculated with the following equation and expressed as a percent inhibition: % inhibition=(sample CPM non-specific CPM)/(Total CPM non-specific CPM)×100 where
(§2) CPM stands for counts per minute. To determine secondary binding data, CPM/well are pooled and fitted to a three parameter logistic function for competition binding in Prism v 5.0 to determine IC50 values, which are converted to K, according to the Cheng-Prusoff equation.
(§3) Receptor binding assays were performed by the Psychoactive Drug Screening Program (PDSP) at Chapel Hill, N.C. […] Briefly, Sig1Rs and Sig2Rs were sourced from homogenates of Guinea pig brains and rat livers, respectively. Assessment of Sig1R binding affinity was determined via competition binding assays with the radioligand [3H]-(+)-pentazocine. Sig2R binding affinity was determined through competition binding assays using the radioligand [3H]-ditolylguanidine in the presence of (+)-pentazocine to block Sig1R binding sites. […] The radioactivity in the presence of the test compound is calculated with the following equation and expressed as a percent inhibition: % inhibition=(sample CPM non-specific CPM)/Total CPM−non-specific CPM)×100. The normalization process is carried out in Prism or Excel. To determine secondary binding results, CPM/well are pooled and fitted to a three parameter logistic function for competition binding in Prism v 5.0 to determine IC50 values, which are converted to Ki according to the Cheng-Prusoff equation.

[2] = target: T2, sigma 1 receptor (Cavia porcellus (Guinea pig), UniProt Q60492); experiment: biochemical; settings: for inhibition at 10 µM: read-out: σ1 inhibition of radioligand binding
Procedure: as §3

[3] = target: T1, sigma 2 receptor; experiment: biochemical; settings: for inhibition at 10 µM: read-out: σ2 inhibition of radioligand binding
Procedure: as §1, §2, §3

[4] = target: T2, sigma 1 receptor; settings: for Ki: read-out: σ1 Ki
Procedure: as §3

[5] = tested on: Wild-type mice (C57BL/6) subjected to Blast (brain injury); experiment: Traumatic Brain Injury, Morris Water Maze after blast; type: in vivo; settings: seven days of daily treatment beginning the day after injury, compared to Veh
From the text: FIG. 10 Traumatic Brain Injury treatment; Morris Water Maze (spatial and long term memory) after blast; Wild-type mice (C57BL/6) were subjected to either a Blast (brain injury) or Sham blast (no brain injury).

[6] = tested on: Wild-type mice (C57BL/6) subjected to Blast (brain injury); experiment: Traumatic Brain Injury, Barnes Maze after blast; type: in vivo; settings: seven days of daily treatment beginning the day after injury, compared to Veh
From the text: FIG. 9 Traumatic Brain Injury treatment; Barnes Maze (spatial and long term memory) after blast; Wild-type mice (C57BL/6) were subjected to either a Blast (brain injury) or Sham blast (no brain injury).

[7] = tested on: proinflammatory cytokines (IL-1β, TNFα, CD14); experiment: Brain levels of proinflammatory cytokines in transgenic mice; type: in vivo; settings: Thy1-APPLond/Swe+ mice, 60 days of treatment (30 mg/kg)
[8] = tested on: Murine hippocampal neuron slices; experiment: Synaptic long term depression in hippocampal neuron slices
From the text: FIG. 13 Effect of SAS-0132 on Synaptic Long Term Depression (inhibition); effect of SAS-0132 on dihydroxyphenylglycine (DHPG) mediated increase in long term depression (LTD).

[9] = tested on: neuroblastoma cells; experiment: MTT Assay in Neuroblastoma Cells
Procedure: FIG. 15 MTT Assay in Neuroblastoma Cells; Sigma 2 receptor binding ligands were evaluated for effects in neuroblastoma cells.
FIG. 16 MTT Assay in Neuroblastoma Cells; Sigma 2 receptor binding ligands were evaluated for effects in neuroblastoma cells.

[10] = tested on: neuroblastoma cells; experiment: Calcium ion levels in neuroblastoma cells; type: cell-based
[11] = target: σ2R (Homo sapiens (Human), UniProt Q5BJF2); settings: cited from earlier work
σ2R, sequence (Q5BJF2 whole entry): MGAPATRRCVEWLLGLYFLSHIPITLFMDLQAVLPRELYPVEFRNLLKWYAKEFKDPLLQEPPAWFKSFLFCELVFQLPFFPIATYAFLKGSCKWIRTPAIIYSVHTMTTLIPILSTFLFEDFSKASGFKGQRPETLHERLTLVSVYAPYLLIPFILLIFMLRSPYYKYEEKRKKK

T2 sequence (Q60492 whole entry): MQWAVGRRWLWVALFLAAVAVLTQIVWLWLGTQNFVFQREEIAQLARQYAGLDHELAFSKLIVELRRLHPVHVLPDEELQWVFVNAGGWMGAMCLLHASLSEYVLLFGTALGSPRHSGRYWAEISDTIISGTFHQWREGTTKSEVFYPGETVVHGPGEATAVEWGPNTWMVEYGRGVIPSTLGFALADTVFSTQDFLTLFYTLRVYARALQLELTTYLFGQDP
T1 sequence (Q5U3Y7 whole entry): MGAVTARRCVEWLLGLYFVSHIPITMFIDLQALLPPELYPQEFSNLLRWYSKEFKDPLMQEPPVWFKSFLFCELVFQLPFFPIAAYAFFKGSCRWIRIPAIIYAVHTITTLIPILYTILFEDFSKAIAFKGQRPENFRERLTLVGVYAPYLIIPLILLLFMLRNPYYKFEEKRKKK

Row | Structure (SMILES) | Ki [1] [nM] | σ1 pKi ± SEM [4] | Ki [4] [nM] | σ2 pKi ± SEM [1] | Ki(σ1)/Ki(σ2) [1] | also measured
1 | CCCOC(=O)CCN1CCN(c2ccc3c(c2)[C@H]2C[C@H]3CCN2C(=O)OCc2ccccc2)CC1 | 58 | – | – | – | – | –
2 | CN1CCN(c2ccc3c(c2)C2CC3CCN2C(=O)C2CCCCC2)CC1 (racemic) [(±)-TH-1-106, (±)-Cyclohexyl(8-(4-methylpiperazin-1-yl)-1,3,4,5-tetrahydro-2H-1,5-methanobenzo[c]azepin-2-yl)methanone] | – | – | – | – | – | Ki ([2]; σ1 Ki (nM)): 1420 nM; Ki [3]: 144 nM
3 | O=C(OCc1ccccc1)N1CC[C@@H]2C[C@@H]1c1cc(Cl)ccc12 [Compound 12] | – | – | – | – | – | inhibition at 10 µM [2]: < 50%; inhibition at 10 µM [3]: < 50%
4 | O=C(OCc1ccccc1)N1CC[C@@H]2C[C@@H]1c1cc(N3CCOCC3)ccc12 [Compound 16] | – | – | – | – | – | inhibition at 10 µM [2]: < 50%; sigma receptor binding (in words) [1]: did not bind; inhibition at 10 µM [3]: < 50%
5 | c1ccc(CN2CC[C@@H]3C[C@@H]2c2cc(N4CCCCC4)ccc23)cc1 [Compound 19] | 318 | 5.61 ± 0.06 | 2430 | 6.5 ± 0.1 | 8 | preference / selectivity for σ2R relative to σ1R [1]: about 8 fold
6 | C=CCCN1CCN(c2ccc3c(c2)[C@H]2C[C@H]3CCN2C(=O)OCc2ccccc2)CC1 [Compound 29] | 16 | 6.76 ± 0.05 | 172 | 7.79 ± 0.05 | 11 | –
7 | CC(C)=CCN1CCN(c2ccc3c(c2)[C@H]2C[C@H]3CCN2C(=O)OCc2ccccc2)CC1 [Compound 30] | 23 | 7.21 ± 0.05 | 62 | 7.64 ± 0.07 | 3 | –
8 | CN1CCN(c2ccc3c(c2)[C@H]2C[C@H]3CCN2)CC1 [Compound 33] | – | – | – | – | – | inhibition at 10 µM [3]: < 50%
9 | CN1CCN(c2ccc3c(c2)[C@H]2C[C@H]3CCN2S(=O)(=O)c2ccccc2)CC1 [Compound 35] | 764 | – | – | 6.12 ± 0.07 | – | inhibition at 10 µM [2]: < 50%
10 | CN1CCN(c2ccc3c(c2)[C@H]2C[C@H]3CCN2C(=O)CCc2ccccc2)CC1 [Compound 36] | 357 | 6.53 ± 0.08 | 294 | 6.45 ± 0.06 | 1 | –
11 | C=CCOC(=O)N1CC[C@@H]2C[C@@H]1c1cc(N3CCN(C)CC3)ccc12 [Compound 37] | 442 | 5.68 ± 0.07 | 2100 | 6.37 ± 0.07 | 5 | –
12 | Clc1cccc(CN2CC[C@@H]3C[C@@H]2c2cc(N4CCCCC4)ccc23)c1 [Compound 38] | 746 | – | 3520 | – | 5 | Ki ([2]; σ1 pKi ± SEM): 3160 nM; Ki [3]: 794 nM
13 | Clc1cc(Cl)cc(CN2CC[C@@H]3C[C@@H]2c2cc(N4CCOCC4)ccc23)c1 [Compound 39] | 92 | 5.53 ± 0.09 | 2980 | – | 32 | preference / selectivity for σ2R relative to σ1R [1]: 32 fold; Ki [3]: 100 nM
14 | Fc1ccccc1CN1CC[C@@H]2C[C@@H]1c1cc(N3CCOCC3)ccc12 [Compound 40] | 1260 | 5.34 ± 0.09 | 4540 | 5.9 ± 0.1 | 4 | preference / selectivity for σ2R relative to σ1R [1]: 4 fold
15 | CN1CC[C@@H]2C[C@@H]1c1cc(-c3ccc(C(F)(F)F)cc3)ccc12 [Compound 41] | 43 | 6.81 ± 0.09 | 156 | 7.36 ± 0.08 | 4 | –
16 | FC(F)(F)c1ccc(-c2ccc3c(c2)[C@H]2C[C@H]3CCN2CCc2ccccc2)cc1 [Compound 42] | 166 | – | 1060 | 6.8 ± 0.1 | 6 | Ki ([2]; σ1 pKi ± SEM): 1000 nM
17 | Cc1cccc(-c2ccc3c(c2)[C@H]2C[C@H]3CCN2C)c1 [Compound 43] | 133 | 6.41 ± 0.08 | 391 | 6.88 ± 0.07 | 3 | –
18 | Cc1cccc(-c2ccc3c(c2)[C@H]2C[C@H]3CCN2Cc2ccc3c(c2)OCO3)c1 [Compound 44] | – | – | – | – | 6 | Ki ([2]; σ1 Ki (nM)): 4610 nM; Ki ([2]; σ1 pKi ± SEM): 4570 nM; Ki [3]: 828 nM
19 | CCCN1CCN(c2ccc3c(c2)C2CC3CCN2C(=O)OCc2ccccc2)CC1 (centres unmarked) [DKR-1516] | – | – | – | – | – | spatial- and long term memory, Morris Water Maze [5]: performed significantly better; spatial- and long term memory, Barnes Maze [6]: performed significantly better
20 | CN1CCN(c2ccc3c(c2)[C@H]2C[C@@H]3CCN2C(=O)OCc2ccccc2)CC1 [SAS-0132] | – | – | – | – | – | brain levels of CD14 [7]: not statistically significant; brain levels of IL-1β [7]: significant reduction; brain levels of TNFα [7]: not statistically significant; DHPG-mediated increase in LTD [8]: blocked; concentration at which cytotoxicity begins [9]: around 30 microM; toxicity in MTT assay (in words) [9]: not toxic at low doses; DKR-1051-induced calcium response [10]: concentration-dependent attenuation; intracellular Ca2+ concentration ([10]; concentrations up to 30 μM): does not induce significant increases; spatial- and long term memory, Barnes Maze [6]: performed significantly better
21 | OCCN1CCN(CCCN2c3ccccc3C=Cc3ccccc32)CC1 [opipramol] | – | – | – | – | – | affinity for σ2R [11]: appreciable affinity
